In patent US5532225A, “Acyclic purine phosphonate nucleotide analogs as antiviral agents, and related synthetic methods” (SRI International, priority 1992, dated 1996):

Assays:
[1] = tested on: human cytomegalovirus; assay: in vitro antiviral evaluation (cytotoxicity and viral cytopathic effect, CPE) in MRC-5 cells; type: cell-based; conditions: racemate approximately 50:50 (w/w) of 1-9 and 2-9
Protocol: The compounds prepared in Examples 1 and 2 were evaluated in vitro as antiviral agents against human cytomegalovirus.
One herpes virus strain employed was Strain McCrae of type 1 herpes (thymidine kinase positive virus) (HSV-1TK^+). This strain was prepared and titered in MA-104 cells and frozen at -90° C. until use. Also used were strain HF (HSV-1TK^-), strain E194 (HSV-2), NJB strain (MCMV), and strain AD169 (HCMV).
Continuous passaged MRC-5 cells obtained from the American Type Culture Collection (Bethesda, Md.) were used for testing of herpes-type virus, with growth medium consisting of Minimum Essential Medium (MEM) supplemented with 0.1% NaHCO3 and […] gentamicin.
To a 96 well microtiter plate containing an established 24 hour monolayer of cells from which the medium has been decanted was added 0.1 mL of varying (one-half log10) concentrations of test compound, which incubated on the cell 15 minutes, after which 0.1 mL of virus in a concentration of 320 cell culture 50% infectious doses (CCID50)/0.1 mL was added. The plate was covered with plastic wrap and incubated at 37° C. The cells were examined microscopically after 72 hours for evidence of cytotoxicity and for viral cytopathic effect (CPE).

[2] = tested on: several herpes viruses; assay: activity of isolated enantiomer against several herpes viruses (general statement); type: cell-based

Nc1nc2c(ncn2CO[C@@H](CO)CCP(=O)(O)O)c(=O)[nH]1 [Compound 2-9, 9-[(R(-)-1-Hydroxymethyl-3-phosphono)-propyl-oxymethyl]guanine]
share of the antiviral activity of the racemate due to the enantiomer (conclusion in words) [1]: majority of the antiviral activity of the racemate is due to the (R) enantiomer
activity against several herpes viruses (in words) [2]: significant activity against several herpes viruses
